Measurements taken from US20250067753A1, “Protein array-based in vitro transglutaminase assay platform for epitope mapping and immunogen design” (priority 2021, published 2025).

Columns and labels:
[1] = tested on: transglutaminase; details: as amine acceptor; Parameswaran, Velasco et al. 1990; cited from earlier work
[2] = biological target: T1, guinea pig liver tissue transglutaminase (UniProt P08587); test: Onchip in vitro TG2 assay (dansyl-cadaverine incorporation on peptide microchip); format: biochemical; details: 100 μg/ml TG2, 3 mM dansyl-cadaverine, 5 mM Calcium Chloride, 37 degree, 30 minutes; anti-dansyl antibody/Alexa Fluor 594 readout
T1 construct: guinea pig liver tissue transglutaminase (Sigma); purchased Sigma; host or cells: guinea pig liver (as named)
T1 sequence (P08587 1-690): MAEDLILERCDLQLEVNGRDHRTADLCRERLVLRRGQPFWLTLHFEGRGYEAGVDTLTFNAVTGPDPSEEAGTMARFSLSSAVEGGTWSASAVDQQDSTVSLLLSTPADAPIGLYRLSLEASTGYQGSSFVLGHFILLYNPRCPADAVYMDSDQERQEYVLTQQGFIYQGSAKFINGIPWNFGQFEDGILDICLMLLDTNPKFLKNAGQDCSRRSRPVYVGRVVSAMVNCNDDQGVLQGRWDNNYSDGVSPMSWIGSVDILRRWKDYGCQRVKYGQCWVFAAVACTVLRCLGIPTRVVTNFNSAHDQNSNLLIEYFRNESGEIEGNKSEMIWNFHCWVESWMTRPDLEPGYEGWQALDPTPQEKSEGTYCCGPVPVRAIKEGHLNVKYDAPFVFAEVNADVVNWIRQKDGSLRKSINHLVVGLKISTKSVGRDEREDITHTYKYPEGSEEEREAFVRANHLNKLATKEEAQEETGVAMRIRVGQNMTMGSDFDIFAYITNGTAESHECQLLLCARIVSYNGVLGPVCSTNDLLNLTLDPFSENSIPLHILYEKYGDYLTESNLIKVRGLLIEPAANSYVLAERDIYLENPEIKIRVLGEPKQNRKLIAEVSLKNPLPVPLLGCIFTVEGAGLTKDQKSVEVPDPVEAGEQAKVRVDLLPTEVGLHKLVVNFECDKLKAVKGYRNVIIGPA
Experimental: To identify the glutamine residues that can be modified by tissue transglutaminase on the peptide microchip, the synthesized peptide microchip was incubated with 100 μg/ml guinea pig liver tissue transglutaminase (Sigma) and 3 mM dansyl-cadaverine (Sigma) in 1 ml of TBS containing 5 mM Calcium Chloride and 1 mM DTT at 37 degree for 30 minutes. Afterwards, the peptide chip was washed at least 3 times with TBS. After washing off tissue transglutaminase and dansyl-cadaverine molecules […] the synthesized peptides, the dansyl-cadaverine conjugated on the chip was tracked by rabbit anti-dansyl antibody (Invitrogen) followed by Alexa Fluor 594-labeled anti-rabbit secondary antibody (Invitrogen). Fluorescent microchip figures were quantified and analyzed with ArrayPro32. Original array figures and data are available upon request.
To characterize the glutamine-bearing TG2 modification motifs on these synthesized peptides, dansyl-cadaverine, a well-established amine donor in transglutaminase reaction, was covalently conjugated to the glutamine residues on the peptide chip by purified TG2 with the help of calcium (FIG. 1A). […] In this way the level of dansyl-cadaverine incorporation on a certain peptide was measured by the fluorescent intensity. […]

QQIV
competitive inhibitor for the transglutaminase reaction [1]: effective competitive inhibitor
fluorescent intensity (level of dansyl-cadaverine incorporation) [2]: ~5000
